{
  "source": "patent US20050180921A1",
  "about": "“Contrast agents to improve gastrointestinal tract opacification during abdominal and pelvic CT scans” (priority 2004, published 2005)",
  "test_system": "gastrointestinal tract",
  "test": "CT of abdomen and pelvis after oral agent: bowel distension, wall visualization, transit to colon",
  "format": "in vivo, human",
  "description": "Institutional review board approval was obtained. These materials were offered to outpatients (ranging from 18 to 89 years of age) in random fashion. In each case, the patient was given literature to explain the project and then asked to sign a consent form. Those who declined participation in the study were given dilute iodinated contrast or water as appropriate for the exam. […] The amount of each material, 1600 cc, and timing, approximately 60 minutes, were standard for the preparation protocol used with dilute iodinated contrast. Although scanning parameters varied slightly, depending on the clinical question, all patients received 5 mm or less slices through the abdomen and pelvis. […] Where given, the intravenous contrast agent was administered from 3-5 cc/sec for 100-150 cc of 300 mg % non-ionic contrast.\nEach drink was labeled with a letter A-E to blind the administered substance to the reader. […] Each CT scan was read by consensus by two readers. Each exam was rated for various characteristics. The stomach was rated for distention: 1=well distended; 2=adequate distention; 3=poor distention. The small bowel was rated for two characteristics. The distention was assessed with measurements taken from the left upper quadrant (LUQ), the pelvis, and the right lower quadrant (RLQ) areas. Three measures were taken at each area with the greatest diameters used. The diameters were then averaged. The definition of the bowel wall was also graded using visualization of the wall separate from the luminal contents as well as the ability to appreciate the valvulae conniventes when present (1=excellent, 2=good, 3=fair, 4=poor, 5=non-diagnostic). Finally, an attempt was made to assess whether the ingested liquid was able to reach the colon during the preparation time period (0=no oral contrast in colon, 1=oral contrast in colon).",
  "data": [
    {"smiles": "O", "note": "[Water, water]", "values": [
      {"measurement": "LUQ small bowel distention (averaged greatest diameters)", "setting": "1600 cc oral, approximately 60 minutes, left upper quadrant, group mean", "value": 17.50, "unit": "mm"},
      {"measurement": "Pelvis small bowel distention (averaged greatest diameters)", "setting": "1600 cc oral, approximately 60 minutes, pelvis, group mean", "value": 14.79, "unit": "mm"},
      {"measurement": "RLQ small bowel distention (averaged greatest diameters)", "setting": "1600 cc oral, approximately 60 minutes, right lower quadrant, group mean", "value": 14.14, "unit": "mm"},
      {"measurement": "mid to distal / small bowel distention, result in words", "setting": "FIGS. 2A-2D and study in general", "value": "least effective"},
      {"measurement": "Wall (definition of the bowel wall, qualitative evaluation)", "setting": "mean grade, 1=excellent, 2=good, 3=fair, 4=poor, 5=non-diagnostic", "value": 2.23},
      {"measurement": "Stomach (distention, qualitative evaluation)", "setting": "mean grade, 1=well distended, 2=adequate distention, 3=poor distention", "value": 2.13},
      {"measurement": "Colon (ingested liquid reached the colon during preparation time)", "setting": "mean, 0=no oral contrast in colon, 1=oral contrast in colon", "value": ".020"}
    ]}
  ]
}
